Assay results from the supplement of paper PMC10307832.

Key:
Experiment in all cases: relative viability (nuclei count vs DMSO), 5 days (fraction); higher = more cells survive
[1] = compound: CC[C@H](Nc1ncnc2[nH]cnc12)c1nc2cccc(F)c2c(=O)n1-c1ccccc1 [Idelalisib] + COc1cc2c(Oc3ccc(NC(=O)C4(C(=O)Nc5ccc(F)cc5)CC4)cc3F)ccnc2cc1OCCCN1CCOCC1 [Foretinib] (partner 0.25 µM)
How it was run: (§1)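 Lung cancer cell lines, seeded in 1536-well plates, were treated the following day by pin tool with a single drug or with five library-drug doses (not always all listed) in √10 steps on top of a fixed anchor-drug dose. Cells were fixed and nuclei stained in one step after 5 days, and nuclei were counted. Relative viability is the nuclei count for treated wells divided by that for vehicle wells, reported as medians of duplicate plates.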

[2] = compound: CC[C@H](Nc1ncnc2[nH]cnc12)c1nc2cccc(F)c2c(=O)n1-c1ccccc1 [Idelalisib] + N=C(N)NC(=N)NCCc1ccccc1 [Phenformin] (partner 250 µM)
How it was run: as §1

[3] = compound: Nc1nc2[nH]cc(CCc3ccc(C(=O)N[C@@H](CCC(=O)O)C(=O)O)cc3)c2c(=O)[nH]1 [Pemetrexed] + Cc1nc(NC(=O)N2CCC[C@H]2C(N)=O)sc1-c1ccnc(C(C)(C)C(F)(F)F)c1 [Alpelisib] (partner 2 µM)
How it was run: as §1

[4] = compound: Nc1nc2[nH]cc(CCc3ccc(C(=O)N[C@@H](CCC(=O)O)C(=O)O)cc3)c2c(=O)[nH]1 [Pemetrexed] + N=C(N)NC(=N)NCCc1ccccc1 [Phenformin] (partner 250 µM)
How it was run: as §1

Cell Line	relative viability ([1]; first compound 0.04 µM)	relative viability ([1]; first compound 0.1265 µM)	relative viability ([1]; first compound 0.4 µM)	relative viability ([1]; first compound 1.265 µM)	relative viability ([1]; first compound 4 µM)	relative viability ([2]; first compound 0.04 µM)	relative viability ([2]; first compound 0.1265 µM)	relative viability ([2]; first compound 0.4 µM)	relative viability ([2]; first compound 1.265 µM)	relative viability ([2]; first compound 4 µM)	relative viability ([3]; first compound 0.002 µM)	relative viability ([3]; first compound 0.006325 µM)	relative viability ([3]; first compound 0.02 µM)	relative viability ([3]; first compound 0.06325 µM)	relative viability ([3]; first compound 0.2 µM)	relative viability ([4]; first compound 0.002 µM)	relative viability ([4]; first compound 0.006325 µM)	relative viability ([4]; first compound 0.02 µM)	relative viability ([4]; first compound 0.06325 µM)	relative viability ([4]; first compound 0.2 µM)
NCI-H1793	0.764	0.54	0.381	0.685	0.409	0.388	0.369	0.288	0.335	0.224	0.672	0.692	0.83	0.624	0.677	0.436	0.361	0.42	0.349	0.405
NCI-H1355	0.992	0.946	0.907	0.868	0.823	0.476	0.502	0.364	0.448	0.411	0.805	0.768	0.822	0.843	0.858	0.432	0.468	0.45	0.503	0.438
COR-L23	1.12	1.02	0.982	1.08	0.898	0.439	0.39	0.411	0.433	0.517	0.803	0.719	0.72	0.259	0.176	0.394	0.431	0.47	0.26	0.173
A-427	1.27	0.946	0.962	1.04	1.06	0.36	0.318	0.287	0.372	0.328	1.09	1.1	1.05	1.1	1.04	0.298	0.42	0.377	0.308	0.355
NCI-H520	0.738	0.741	0.587	0.7	0.553	0.513	0.585	0.466	0.451	0.397	0.92	0.828	0.948	0.823	0.697	0.567	0.756	0.756	0.65	0.501
LXF-289	0.946	0.979	0.928	1.14	0.951	0.506	0.518	0.46	0.534	0.496	1.04	1	1.07	1.05	0.969	0.497	0.504	0.525	0.52	0.479
NCI-H2087	1.28	1.04	0.842	0.908	0.579	0.515	0.494	0.36	0.5	0.326	0.939	1.02	0.926	1.01	0.603	0.397	0.446	0.475	0.473	0.47
CAL-12T	1.27	1.13	1.09	1.16	1.39	0.622	0.614	0.507	0.65	0.67	1.03	0.976	1.11	1.15	1.05	0.502	0.477	0.612	0.58	0.608
NCI-H596	0.95	0.885	0.671	0.909	0.681	0.75	0.765	0.689	0.731	0.616	0.409	0.485	0.593	0.39	0.374	0.766	0.702	0.775	0.751	0.565
PC-14	1.05	0.988	0.933	0.995	0.968	0.746	0.784	0.516	0.409	0.669	0.897	0.958	0.931	0.535	0.158	0.452	0.582	0.901	0.445	0.27
NCI-H1915	1.15	1.1	1.09	1.19	1.09	0.387	0.36	0.364	0.381	0.372	0.995	1.04	1.03	1.09	1.1	0.358	0.39	0.373	0.357	0.381
NCI-H647	1.18	1.35		0.895	0.746	0.673	0.498		0.38	0.299		1.02	1.3	0.836	0.296	0.457	0.445	0.598	0.482	0.236
NCI-H322M	1.22	1.1	0.792	0.841	0.908	0.901	0.846	0.66	0.741	0.735	0.814	0.724	0.813	0.776	0.773	0.861	0.747	0.799	0.741	0.613
A549	1.18	1.03	0.917	1	1.01	0.36	0.182		0.154	0.178	0.695	0.682	0.946	0.785	0.774	0.161	0.155	0.169	0.161	0.14
NCI-H2170	0.952	1.05	0.947	1.03	0.947	0.443	0.449	0.403	0.408	0.373	0.723	0.831	0.905	0.869	0.824	0.449	0.443	0.424	0.42	0.405
BEN	0.751	0.567	0.539	0.856	0.661	0.277	0.27	0.262	0.28	0.281	1.09	1.02	1.03	0.989	0.774	0.288	0.283	0.255	0.272	0.275

Cell Line	relative viability ([1]; first compound 0.04 µM)	relative viability ([1]; first compound 0.1265 µM)	relative viability ([1]; first compound 0.4 µM)	relative viability ([1]; first compound 1.265 µM)	relative viability ([1]; first compound 4 µM)	relative viability ([2]; first compound 0.04 µM)	relative viability ([2]; first compound 0.1265 µM)	relative viability ([2]; first compound 0.4 µM)	relative viability ([2]; first compound 1.265 µM)	relative viability ([2]; first compound 4 µM)	relative viability ([3]; first compound 0.002 µM)	relative viability ([3]; first compound 0.006325 µM)	relative viability ([3]; first compound 0.02 µM)	relative viability ([3]; first compound 0.06325 µM)	relative viability ([3]; first compound 0.2 µM)	relative viability ([4]; first compound 0.002 µM)	relative viability ([4]; first compound 0.006325 µM)	relative viability ([4]; first compound 0.02 µM)	relative viability ([4]; first compound 0.06325 µM)	relative viability ([4]; first compound 0.2 µM)
NCI-H2009	1.17	1.21	1.16	1.23	1.14	0.496	0.483	0.474	0.536	0.491	1.15	1.13	1.22	1.12	1.08	0.466	0.494	0.539	0.47	0.477
LC-2-ad	0.978	0.857	0.733	0.943	0.85	0.602	0.592	0.462	0.626	0.546	0.888	0.936	0.833	0.232	0.187	0.518	0.567	0.492	0.335	0.374
NCI-H1437	1.24	1.32	1.24	1.36	1.42	0.309	0.306	0.297	0.361	0.247	0.877	0.939	0.884	0.506	0.227		0.348	0.281	0.196	0.163
NCI-H3122	0.963	0.939	1	0.982	0.836	0.389	0.371	0.403	0.41	0.388	0.94	0.833	0.734	0.772	0.521	0.419	0.37	0.374	0.336	0.205
NCI-H1563	0.969	0.941	0.873	0.877	0.788	0.666	0.666	0.612	0.631	0.638	0.904	0.922	0.976	0.875	0.954	0.745	0.649	0.67	0.651	0.64
NCI-H727	1.1	0.968	0.629	0.92	0.691	0.582	0.56		0.607	0.448	0.577	0.534	0.596	0.678	0.594		0.484	0.474	0.633	0.525
NCI-H1734	0.911	0.911	0.836	0.957	0.642	0.455	0.446	0.344	0.377	0.377	0.694	0.731	0.629	0.632	0.698	0.459	0.343	0.458	0.373	0.386
HCC-15	1.09	1.02	0.975	1.18	0.94	0.498	0.511	0.389	0.587	0.5	0.821	0.847	0.867	0.666	0.519	0.439	0.455	0.531	0.372	0.21
NCI-H2405	1.11	1.06	0.952	1.01	0.956	0.451	0.37	0.322	0.355	0.35	0.896	0.714	0.868	0.712	0.736	0.37	0.362	0.423	0.432	0.392
NCI-H1993	0.967	0.843	0.649	0.837	0.737	0.57	0.484	0.554	0.59	0.486	0.731	0.645	0.661	0.754	0.785	0.445	0.455	0.493	0.532	0.489
NCI-H460	1.03	1.06	0.962	1	0.896	0.643	0.516	0.438	0.503	0.515	0.479	0.344	0.518	0.151	0.0576	0.432	0.452	0.56	0.247	0.0552
NCI-H1651	0.761	0.799	0.702	0.735	0.561	0.35	0.372	0.258	0.322	0.321	0.951	0.948	0.939	0.952	0.93	0.299	0.354	0.377	0.285	0.368
NCI-H1975	0.934	0.931	0.885	0.86	0.867	0.426	0.418	0.369	0.408	0.357		0.63	0.704	0.535	0.4	0.331	0.39	0.413	0.32	0.237
NCI-H2126	1.21	1.26	1.06	1.33	1.09	0.575	0.57	0.441	0.528	0.527	0.737	0.758	0.75	0.703	0.742	0.536	0.555	0.574	0.507	0.486
201T	1.09	1.07	0.741	1.11	0.993	0.497	0.416	0.328	0.488	0.423	1.07	1.05	1.03	1	0.955	0.428	0.494	0.479	0.426	0.403
HCC-78	0.612	0.594	0.462	0.528	0.434	0.945	0.647	0.582	0.751	0.674		0.316	0.324	0.228	0.174	0.446	0.694	0.599	0.361	0.255
